The source of these data is patent US20220387608A1, “ADRENOMEDULLIN-ANALOGUES FOR LONG-TERM STABILIZATION AND THEIR USE” (Bayer Aktiengesellschaft, priority 2019, published 2022).

Positions of bridges follow the written chain, without caps; N, C: chain ends. Non-standard residues stand in square brackets, D forms with d. Residues, ends and D or L forms follow the SMILES beside them. *: point of attachment. X1 = CN(C)c1ccc2c(c1)Oc1cc(N(C)C)ccc1C21OC(=O)c2ccc(C(=O)*)cc21; C18 diacid = O=C(O)CCCCCCCCCCCCCCCCC(=O)*; PEG3 = NCCOCCOCCOCCC(=O)O; Dap = NC[C@H](N)C(=O)O

The nature of this data set: Stability determination of TAMRA-labelled adrenomedullin analogues in human blood plasma. In kind it is in vitro ADME. The conditions noted are these: 37° C., 10^-5 M, slow-decay phase half-life, read-out: t1/2 (slow) (converted). Here is the method:
The stability of the peptides was investigated using fluorescently labeled analogues, which were prepared as described above.
The TAMRA-labeled analogues were dissolved in 1.5 m1 of human blood plasma to a concentration of 10^−5 M and incubated at 37° C. under constant shaking. Samples of 150 μl were taken at different time points and precipitated with 300 μl Ethanol/ACN (1:1) for at least 1 h at −20° C. After centrifugation for 30 s at 12000 rpm, the supernatant was collected and incubated at −20° C. for at least 3 h. Subsequently, it was transferred into Costar® Spin-X® Centrifuge Tube Filters (0.22 μm) and centrifuged for 1 h at 12000 rpm. The samples were analyzed by RP-HPLC using a VariTide RPC column (Agilent Technologies, 250 mm×4.6 mm, […], 200 Å) with linear gradients of 0.1% TFA in water and 0.08% TFA in ACN; fluorescence measurement (λex=525 nm; λem=572 nm) was used for the detection of the analogues and their N-terminal fragments. The percentage of intact peptide was determined by peak integration. The values of peaks containing additional cleavage fragments were corrected by comparing intensities of cleavage fragments and intact peptide using MALDI-MS analysis (UltraflexIII, Bruker). The stability of the peptides was calculated with GraphPad Prism 5 (GraphPad Software) using a two phase exponential decay function for the determination of slow-decay phase half-lives (ln(2)/Kslow; Kslow: rate constant of slow part of exponential decay).

Regarding `CC[C@H](C)[C@H](NC(=O)[C@H](CCC(N)=O)NC(=O)[C@H](Cc1c[nH]cn1)NC(=O)[C@H](C)NC(=O)[C@H](CC(C)C)NC(=O)[C@H](CCCCN)NC(=O)[C@H](CCC(N)=O)NC(=O)[C@@H](NC(=O)[C@@H](NC(=O)[C@@H]1CSSC[C@H](NC(=O)CNC(=O)[C@H](CCCCNC(=O)CCCCCCCCCCCCCCCCC(=O)O)NC(=O)c2ccc3c(c2)C2(OC3=O)c3ccc(N(C)C)cc3Oc3cc(N(C)C)ccc32)C(=O)N[C@@H](CCCNC(=N)N)C(=O)N[C@@H](Cc2ccccc2)C(=O)NCC(=O)N[C@@H]([C@@H](C)O)C(=O)N1)[C@@H](C)O)C(C)C)C(=O)N[C@@H](Cc1ccc(O)cc1)C(=O)N[C@@H](CCC(N)=O)C(=O)N[C@@H](Cc1ccccc1)C(=O)N[C@H](C(=O)N[C@@H](CC(=O)O)C(=O)N[C@@H](CCCCN)C(=O)N[C@@H](CC(=O)O)C(=O)N[C@@H](CCCCN)C(=O)N[C@@H](CC(=O)O)C(=O)N[C@@H](CC(N)=O)C(=O)N[C@H](C(=O)N[C@@H](C)C(=O)N1CCC[C@H]1C(=O)N[C@H]1CCCCNC(=O)C[C@@H](C(=O)N2CCC[C@H]2C(=O)N[C@@H](CCC(N)=O)C(=O)NCC(=O)N[C@@H](Cc2ccc(O)cc2)C(N)=O)NC(=O)[C@H]([C@@H](C)CC)NC(=O)[C@H](CCCCN)NC(=O)[C@H](CO)NC1=O)C(C)C)[C@@H](C)O` [TAM-13] (X1-K(C18 diacid)GCRFGTCTVQKLAHQIYQFTDKDKDNVAPKSKIDPQGY-NH2; disulfide 3-8; lactam 31-35), the half-life was greater than 144 h.
The result for `CC[C@H](C)[C@H](NC(=O)[C@H](CCC(N)=O)NC(=O)[C@H](Cc1c[nH]cn1)NC(=O)[C@H](C)NC(=O)[C@H](CC(C)C)NC(=O)[C@H](CCCCN)NC(=O)[C@H](CCC(N)=O)NC(=O)[C@@H](NC(=O)[C@@H](NC(=O)[C@@H]1CSSC[C@H](NC(=O)CNC(=O)[C@H](CCCCNC(=O)CCCCCCCCCCCCCCCCC(=O)O)NC(=O)c2ccc3c(c2)C2(OC3=O)c3ccc(N(C)C)cc3Oc3cc(N(C)C)ccc32)C(=O)N[C@@H](CCCNC(=N)N)C(=O)N[C@@H](Cc2ccccc2)C(=O)NCC(=O)N[C@@H]([C@@H](C)O)C(=O)N1)[C@@H](C)O)C(C)C)C(=O)N[C@@H](Cc1ccc(O)cc1)C(=O)N[C@@H](CCC(N)=O)C(=O)N[C@@H](Cc1ccccc1)C(=O)N[C@H](C(=O)NCCOCCOCCOCCC(=O)N[C@@H](CC(=O)O)C(=O)N[C@@H](CC(N)=O)C(=O)N[C@H](C(=O)N[C@@H](C)C(=O)N1CCC[C@H]1C(=O)N[C@H]1CCCCNC(=O)C[C@@H](C(=O)N2CCC[C@H]2C(=O)N[C@@H](CCC(N)=O)C(=O)NCC(=O)N[C@@H](Cc2ccc(O)cc2)C(N)=O)NC(=O)[C@H]([C@@H](C)CC)NC(=O)[C@H](CCCCN)NC(=O)[C@H](CO)NC1=O)C(C)C)[C@@H](C)O` [TAM-14] (X1-K(C18 diacid)GCRFGTCTVQKLAHQIYQFT[PEG3]DNVAPKSKIDPQGY-NH2; disulfide 3-8; lactam 28-32) reads greater than 144 h.
Under `CC[C@H](C)[C@H](NC(=O)[C@H](CCC(N)=O)NC(=O)[C@H](Cc1c[nH]cn1)NC(=O)[C@H](C)NC(=O)[C@H](CC(C)C)NC(=O)[C@H](CCCCN)NC(=O)[C@H](CCC(N)=O)NC(=O)[C@@H](NC(=O)[C@@H](NC(=O)[C@@H]1CCC(=O)NC[C@H](NC(=O)CNC(=O)[C@H](CCCCNC(=O)CCCCCCCCCCCCCCCCC(=O)O)NC(=O)c2ccc3c(c2)C2(OC3=O)c3ccc(N(C)C)cc3Oc3cc(N(C)C)ccc32)C(=O)N[C@@H](CCCNC(=N)N)C(=O)N[C@@H](Cc2ccccc2)C(=O)NCC(=O)N[C@@H]([C@@H](C)O)C(=O)N1)[C@@H](C)O)C(C)C)C(=O)N[C@@H](Cc1ccc(O)cc1)C(=O)N[C@@H](CCC(N)=O)C(=O)N[C@@H](Cc1ccccc1)C(=O)N[C@H](C(=O)N[C@@H](CC(=O)O)C(=O)N[C@@H](CCCCN)C(=O)N[C@@H](CC(=O)O)C(=O)N[C@@H](CCCCN)C(=O)N[C@@H](CC(=O)O)C(=O)N[C@@H](CC(N)=O)C(=O)N[C@H](C(=O)N[C@@H](C)C(=O)N1CCC[C@H]1C(=O)N[C@@H](CCCNC(=N)N)C(=O)N[C@@H](CO)C(=O)N[C@@H](CCCCN)C(=O)N[C@H](C(=O)N[C@@H](CO)C(=O)N1CCC[C@H]1C(=O)N[C@@H](CCC(N)=O)C(=O)NCC(=O)N[C@@H](Cc1ccc(O)cc1)C(N)=O)[C@@H](C)CC)C(C)C)[C@@H](C)O` [TAM-15] (X1-K(C18 diacid)G[Dap]RFGTETVQKLAHQIYQFTDKDKDNVAPRSKISPQGY-NH2; lactam 3-8) stands greater than 144 h; under `CC[C@H](C)[C@H](NC(=O)[C@H](CCC(N)=O)NC(=O)[C@H](Cc1c[nH]cn1)NC(=O)[C@H](C)NC(=O)[C@H](CC(C)C)NC(=O)[C@H](CCCCN)NC(=O)[C@H](CCC(N)=O)NC(=O)[C@@H](NC(=O)[C@@H](NC(=O)[C@@H]1CCC(=O)NC[C@H](NC(=O)CNC(=O)[C@H](CCCCNC(=O)CCCCCCCCCCCCCCCCC(=O)O)NC(=O)c2ccc3c(c2)C2(OC3=O)c3ccc(N(C)C)cc3Oc3cc(N(C)C)ccc32)C(=O)N[C@@H](CCCNC(=N)N)C(=O)N[C@@H](Cc2ccccc2)C(=O)NCC(=O)N[C@@H]([C@@H](C)O)C(=O)N1)[C@@H](C)O)C(C)C)C(=O)N[C@@H](Cc1ccc(O)cc1)C(=O)N[C@@H](CCC(N)=O)C(=O)N[C@@H](Cc1ccccc1)C(=O)N[C@H](C(=O)N[C@@H](CC(=O)O)C(=O)N[C@@H](CCCCN)C(=O)N[C@@H](CC(=O)O)C(=O)N[C@@H](CCCCN)C(=O)N[C@@H](CC(=O)O)C(=O)N[C@@H](CC(N)=O)C(=O)N[C@H](C(=O)N[C@@H](C)C(=O)N1CCC[C@H]1C(=O)N[C@H]1CCCCNC(=O)C[C@@H](C(=O)N2CCC[C@H]2C(=O)N[C@@H](CCC(N)=O)C(=O)NCC(=O)N[C@@H](Cc2ccc(O)cc2)C(N)=O)NC(=O)[C@H]([C@@H](C)CC)NC(=O)[C@H](CCCCN)NC(=O)[C@H](CO)NC1=O)C(C)C)[C@@H](C)O` [TAM-16] (X1-K(C18 diacid)G[Dap]RFGTETVQKLAHQIYQFTDKDKDNVAPKSKIDPQGY-NH2; lactam 3-8, 31-35), greater than 144 h.
Regarding `CC[C@H](C)[C@H](NC(=O)[C@H](CCC(N)=O)NC(=O)[C@H](Cc1c[nH]cn1)NC(=O)[C@H](C)NC(=O)[C@H](CC(C)C)NC(=O)[C@H](CCCCN)NC(=O)[C@H](CCC(N)=O)NC(=O)[C@@H](NC(=O)[C@@H](NC(=O)[C@@H]1CCC(=O)NC[C@H](NC(=O)CNC(=O)[C@H](CCCCNC(=O)CCCCCCCCCCCCCCCCC(=O)O)NC(=O)c2ccc3c(c2)C2(OC3=O)c3ccc(N(C)C)cc3Oc3cc(N(C)C)ccc32)C(=O)N[C@@H](CCCNC(=N)N)C(=O)N[C@@H](Cc2ccccc2)C(=O)NCC(=O)N[C@@H]([C@@H](C)O)C(=O)N1)[C@@H](C)O)C(C)C)C(=O)N[C@@H](Cc1ccc(O)cc1)C(=O)N[C@@H](CCC(N)=O)C(=O)N[C@@H](Cc1ccccc1)C(=O)N[C@H](C(=O)NCCOCCOCCOCCC(=O)N[C@@H](CC(=O)O)C(=O)N[C@@H](CC(N)=O)C(=O)N[C@H](C(=O)N[C@@H](C)C(=O)N1CCC[C@H]1C(=O)N[C@H]1CCCCNC(=O)C[C@@H](C(=O)N2CCC[C@H]2C(=O)N[C@@H](CCC(N)=O)C(=O)NCC(=O)N[C@@H](Cc2ccc(O)cc2)C(N)=O)NC(=O)[C@H]([C@@H](C)CC)NC(=O)[C@H](CCCCN)NC(=O)[C@H](CO)NC1=O)C(C)C)[C@@H](C)O` [TAM-17] (X1-K(C18 diacid)G[Dap]RFGTETVQKLAHQIYQFT[PEG3]DNVAPKSKIDPQGY-NH2; lactam 3-8, 28-32), the half-life was greater than 144 h.
